In general, Ki refers to a measure of affinity in units of concentration, obtained from inhibition or displacement.

This assay addresses T1, recombinant human LTA4 hydrolase (rhLTA4H) (Homo sapiens, UniProt P09960).
T1 construct: made in house; host or cells: Spodoptera frugiperda (Sf-9) cells, baculovirus (pFastBac1)
T1 sequence (P09960 1-611): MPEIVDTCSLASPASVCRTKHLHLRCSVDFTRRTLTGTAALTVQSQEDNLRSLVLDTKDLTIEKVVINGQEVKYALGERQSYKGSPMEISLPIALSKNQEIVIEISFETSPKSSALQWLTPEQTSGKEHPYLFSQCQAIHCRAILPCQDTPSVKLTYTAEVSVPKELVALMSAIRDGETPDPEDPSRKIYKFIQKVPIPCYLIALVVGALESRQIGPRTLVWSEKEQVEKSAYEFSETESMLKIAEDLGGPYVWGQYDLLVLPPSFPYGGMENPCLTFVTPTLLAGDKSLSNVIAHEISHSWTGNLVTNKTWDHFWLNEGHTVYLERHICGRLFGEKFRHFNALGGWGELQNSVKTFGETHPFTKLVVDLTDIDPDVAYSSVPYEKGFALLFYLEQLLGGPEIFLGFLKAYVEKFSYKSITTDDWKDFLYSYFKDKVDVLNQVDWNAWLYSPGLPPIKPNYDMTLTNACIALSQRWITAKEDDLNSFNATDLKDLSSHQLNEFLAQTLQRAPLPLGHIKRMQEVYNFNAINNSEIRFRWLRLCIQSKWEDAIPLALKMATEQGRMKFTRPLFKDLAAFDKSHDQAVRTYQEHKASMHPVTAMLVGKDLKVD
Put plainly: Recombinant Human LTA4 Hydrolase Assay for LTA4 Hydrolase Inhibitor Activity. Format: biochemical. As to conditions: average of results obtained; LTB4 quantified by enzyme-linked immunoassay. Here is the method:
Biological Methods: Recombinant Human LTA4 Hydrolase Assay for LTA4 Hydrolase Inhibitor Activity
Compounds of the present invention were tested for LTA4 hydrolase inhibitor activity against recombinant human LTA4 hydrolase (rhLTA4H). Vectors were prepared and used to express rhLTA4H essentially as follows: LTA4 hydrolase encoding DNA was amplified by polymerase chain reaction (PCR) using a human placental cDNA library as a template. Oligonucleotide primers for the PCR reaction were based on the 5′-end, and the complement of the 3′-end, of the published nucleotide sequence for the coding region of the human LTA4 hydrolase gene (C. D. Funk et al., Proc. Natl. Acad. Sci. USA 1987, 84:6677-6681). The amplified 1.9 kb DNA fragment encoding LTA4 hydrolase was isolated and cloned into the pFastBac1 vector (Invitrogen). Recombinant baculovirus was generated as described by the manufacturer, and used to infect Spodoptera frugiperda (Sf-9) cells. Recombinant LTA4 hydrolase enzyme was purified from the infected Sf-9 cells essentially as described by J. K. Gierse et al. (Protein Expression and Purification 1993, 4:358-366). The purified enzyme solution was adjusted to contain 0.29 mg/mL LTA4 hydrolase, 50 mM Tris (pH 8.0), 150 mM NaCl, 5 mM dithiothreitol, 50% glycerol, and EDTA-free Complete protease inhibitor cocktail (Roche). The specific activity of the enzyme was about 3.8 μmol/min/mg.
LTA4 substrate was prepared from the methyl ester of LTA4 (Cayman Chemical) by treatment with 67 equiv of NaOH under nitrogen at rt for 40 min. The LTA4 substrate in its free acid form was kept frozen at −80° C. until needed. Each compound was diluted to different concentrations in assay buffer (0.1 M potassium phosphate (pH 7.4), 5 mg/mL fatty acid free BSA) containing 10% DMSO. A 25-uL aliquot of each compound dilution was incubated for 10 min at rt with an equal volume of assay buffer containing 36 ng of recombinant human LTA4H. The solution was then adjusted to 200 μL with assay buffer. LTA4 (free acid) was thawed and diluted in assay buffer to a concentration of 357 ng/mL, and 25 μL (9 ng) of LTA4 substrate was added to the reaction mixture (total volume=225 μL) at time zero. Each reaction was carried out at rt for 10 min. The reaction was stopped by diluting 10 μL of the reaction mixture with 200 μL of assay buffer. LTB4 was quantified in the diluted sample by a commercially available enzyme-linked immunoassay (Cayman Chemical Co.), as recommended by the manufacturer. Positive controls, under essentially identical conditions but without addition of an inhibitor compound, and negative controls, containing all assay components except enzyme, were routinely run in each experiment. […]
Results for the compounds tested in this assay are presented in Table 1 as an average of results obtained.

`NC(=O)N[C@H]1C[C@H]2CC[C@@H](C1)N2CCc1ccc(Oc2nc3ccc(Cl)cc3s2)cc1` [Example 239, meso-endo-(8-{2-[4-(6-Chloro-benzothiazol-2-yloxy)-phenyl]-ethyl}-8-aza-bicyclo[3.2.1]oct-3-yl)-urea]: the Ki came to 130 nM.

Regarding `CS(=O)(=O)N1CC2CCC(C1)N2CCOc1ccc(Oc2nc3ccc(F)cc3s2)cc1` [Example 243, meso-6-Fluoro-2-{4-[2-(3-methanesulfonyl-3,8-diaza-bicyclo[3.2.1]oct-8-yl)-ethoxy]-phenoxy}-benzothiazole], the Ki amounted to 61 nM.

Consider `O=C(c1ccoc1)N1CC2CN(Cc3ccc(Oc4nc5ccccc5s4)cc3)CC2C1` (stereo not shown) [Example 110, {5-[4-(Benzothiazol-2-yloxy)-benzyl]-hexahydro-pyrrolo[3,4-c]pyrrol-2-yl}-furan-3-yl-methanone], for which the Ki was 88 nM.

In the case of `NC(=O)N1[C@@H]2CC[C@H]1C[C@H](NCc1ccc(Oc3nc4cccc(F)c4s3)cc1)C2` [Example 171, meso-endo-3-[4-(7-Fluoro-benzothiazol-2-yloxy)-benzylamino]-8-aza-bicyclo[3.2.1]octane-8-carboxylic acid amide], the Ki stood at 224 nM.

With `CC(C)(O)C(=O)N1C[C@@H]2C[C@H]1CN2CCOc1ccc(Oc2nc3ccccc3s2)cc1` [Example 25, (S,S)-1-(5-{2-[4-(Benzothiazol-2-yloxy)-phenoxy]-ethyl}-2,5-diaza-bicyclo[2.2.1]hept-2-yl)-2-hydroxy-2-methyl-propan-1-one], the Ki was found to be 8 nM.

As for `O=C(C1CCC1)N1CC2CN(Cc3ccc(Oc4nc5ccccc5s4)cc3)CC2C1` (stereo not shown) [Example 104, {5-[4-(Benzothiazol-2-yloxy)-benzyl]-hexahydro-pyrrolo[3,4-c]pyrrol-2-yl}-cyclobutyl-methanone], the Ki is 62 nM.

On to `Cc1ccc2nc(Oc3ccc(CN4[C@@H]5CC[C@H]4C[C@H](NS(C)(=O)=O)C5)cc3)sc2c1` [Example 200, meso-exo-N-{8-[4-(6-Methyl-benzothiazol-2-yloxy)-benzyl]-8-aza-bicyclo[3.2.1]oct-3-yl}-methanesulfonamide], for which the Ki was 65 nM.

As to `NC(=O)N1[C@@H]2CC[C@H]1C[C@@H](NCc1ccc(Oc3nc4cccc(F)c4s3)cc1)C2` [Example 226, meso-endo-3-[4-(7-Fluoro-benzothiazol-2-yloxy)-benzylamino]-8-aza-bicyclo[3.2.1]octane-8-carboxylic acid amide], the Ki was 90 nM.

`NCC(=O)N1C[C@@H]2C[C@H]1CN2CCOc1ccc(Oc2nc3ccccc3s2)cc1` [Example 31, (S,S)-2-Amino-1-(5-{2-[4-(benzothiazol-2-yloxy)-phenoxy]-ethyl}-2,5-diaza-bicyclo[2.2.1]hept-2-yl)-ethanone]: the Ki worked out at 76 nM.

`NC(=O)N1C[C@@H]2C[C@H]1CN2CCc1ccc(Oc2nc3ccccc3s2)cc1` [Example 38, (S,S)-5-{2-[4-(Benzothiazol-2-yloxy)-phenyl]-ethyl}-2,5-diaza-bicyclo[2.2.1]heptane-2-carboxylic acid amide]: the Ki was determined as 3 nM.

With `O=S(=O)(C1CC1)N1CC2CN(Cc3ccc(Oc4nc5ccccc5s4)cc3)CC2C1` (stereo not shown) [Example 126, 2-[4-(5-Cyclopropanesulfonyl-hexahydro-pyrrolo[3,4-c]pyrrol-2-ylmethyl)-phenoxy]-benzothiazole], the Ki turned out to be 17 nM.

In the case of `CS(=O)(=O)N1C[C@H]2C[C@@H]1CN2CCOc1ccc(Oc2nc3c(Cl)cccc3s2)cc1` [Example 203, (R,R)-4-Chloro-2-{4-[2-(5-methanesulfonyl-2,5-diaza-bicyclo[2.2.1]hept-2-yl)-ethoxy]-phenoxy}-benzothiazole], the Ki is 293 nM.

For the compound `CC(=O)N1CC2CCC(C1)N2CCOc1ccc(Oc2nc3cccc(Cl)c3s2)cc1` [Example 283, meso-1-(8-{2-[4-(7-Chloro-benzothiazol-2-yloxy)-phenoxy]-ethyl}-3,8-diaza-bicyclo[3.2.1]oct-3-yl)-ethanone], the inhibitory constant (Ki) worked out at 338 nM.

For the origin of these results see US8344008B2 (Janssen Pharmaceutica NV, priority 2007, dated 2013).
